US20180193294A1, “Dehydroabietic acid (DHAA) derivatives for use as ion channel openers” (priority 2015, published 2018)

How the values were obtained:
[1] = test system: dorsal root ganglion (DRG) neurons; test: Resting membrane potential of DRG neurons, whole-cell current clamp; assay type: cell-based, mice; conditions: 10 μM, pH 7.4, 120 s application
Procedure: (§1) All animal experiments were approved by the local Animal Care and Use Committee and followed international guidelines. Five female 7-12 week-old C57BL/6 mice (Scanbur) were used for this study. The mice were anaesthetized with isoflurane and decapitated. Dorsal root ganglia (DRG) were dissected from all spinal levels and enzymatically digested with collagenase (250 CDU/ml) for 15 min, and then trypsin (1 mg/ml) was added for another 30 min. The ganglia were centrifuged and resuspended in Leibovitz L-15 media with glutamine, supplemented with 10% fetal calf serum, 38 mM glucose, 24 mM NaHCO3 and penicillin/streptomycin. The ganglia were triturated and the DRG neurons plated on poly-D-lysine coated plastic coverslips. The neurons were cultured at 37° C. with 5% CO2 for 2-3 days before the electrophysiological recordings.
(§2) All manual electrophysiological recordings were performed at room temperature (20-23° C.), using a GeneClamp 500B amplifier (for oocytes) or a Axopatch 200B amplifier (for manual patch clamp of CHO—K1 cells and DRG neurons) and a Digidata 1440A digitizer and pClamp 10 software (all from Molecular Devices, Inc., Sunnyvale, Calif., USA). Compounds were dissolved to 100 mM in 99.5% EtOH and stored at −20° C. Compounds were diluted in extracellular solution to the desired test concentration.
(§3) CHO—K1 Cells were plated on coverslips 2 h before the manual electrophysiological recordings. Coverslips with CHO—K1 cells or DRG neurons were placed in a recording chamber and perfused with extracellular solution by a gravity-fed perfusion system. Substances were applied by a pressurized, automated OctaFlow perfusion system (ALA Scientific Instruments). The signals were sampled at 5-20 kHz after low-pass filtering at 2-5 kHz. For CHO—K1 cells the intracellular solution contained (in mM): 120 K-gluconate, 10 KCl, 5 EGTA, 10 HEPES, 4 Mg-ATP, 0.3 Na-GTP, pH 7.3; the extracellular solution contained (in mM): 135 NaCl, 4 KCl, 10 HEPES, 1 MgCl2, 1.8 CaCl2, 10 glucose, pH 7.4. Currents were evoked in CHO—K1 cells in whole-cell voltage-clamp mode from a holding potential of −80 mV by 100-ms long, 10-mV steps ranging from −80 to +80 mV.
(§4) For DRG neurons the intracellular solution contained (in mM): 120 K-gluconate, 10 KCl, 1 EGTA, 10 HEPES, 4 Mg-ATP, 0.3 Na-GTP, pH 7.3; the extracellular solution contained (in mM): 144 NaCl, 2.5 KCl, 10 HEPES, 0.5 MgCl2, 2 CaCl2, 10 glucose, pH 7.4. A liquid-junction potential of approximately −14 mV was corrected for. […] Small and medium sized DRG neurons were selected for whole-cell current-clamp recording. 10 μM of the compounds were applied for 120 s to study the effect on the resting membrane potential, and for 45-120 s to study the effects on evoked action potentials. To evoke action potentials 800-ms depolarizing pulses
The compound effect on the resting membrane potential Vm was determined by subtracting the control pre-compound Vm from the Vm at the end of the 120 s application of test compound.

[2] = test system: dorsal root ganglion (DRG) neurons; test: Evoked action potentials (excitability) of DRG neurons, current clamp; assay type: cell-based, mice; conditions: 10 μM; for effect on the after hyperpolarization: cell with single action potential; for effect on resting potential, cell with single action potential: constant current pulse; for effect on train of action potentials: continuous pulse
Procedure: as §1, §2, §3, §4

3R Shaker K channel = 3R Shaker K channel (Drosophila melanogaster, UniProt P08510, A359R/M356R); test: G(V) shift of 3R Shaker K channel stably expressed in CHO-K1 cells, whole-cell patch clamp; assay type: cell-based; conditions: 10 μM, pH 7.4
Sequence of 3R Shaker K channel (P08510 whole entry M356R/A359R): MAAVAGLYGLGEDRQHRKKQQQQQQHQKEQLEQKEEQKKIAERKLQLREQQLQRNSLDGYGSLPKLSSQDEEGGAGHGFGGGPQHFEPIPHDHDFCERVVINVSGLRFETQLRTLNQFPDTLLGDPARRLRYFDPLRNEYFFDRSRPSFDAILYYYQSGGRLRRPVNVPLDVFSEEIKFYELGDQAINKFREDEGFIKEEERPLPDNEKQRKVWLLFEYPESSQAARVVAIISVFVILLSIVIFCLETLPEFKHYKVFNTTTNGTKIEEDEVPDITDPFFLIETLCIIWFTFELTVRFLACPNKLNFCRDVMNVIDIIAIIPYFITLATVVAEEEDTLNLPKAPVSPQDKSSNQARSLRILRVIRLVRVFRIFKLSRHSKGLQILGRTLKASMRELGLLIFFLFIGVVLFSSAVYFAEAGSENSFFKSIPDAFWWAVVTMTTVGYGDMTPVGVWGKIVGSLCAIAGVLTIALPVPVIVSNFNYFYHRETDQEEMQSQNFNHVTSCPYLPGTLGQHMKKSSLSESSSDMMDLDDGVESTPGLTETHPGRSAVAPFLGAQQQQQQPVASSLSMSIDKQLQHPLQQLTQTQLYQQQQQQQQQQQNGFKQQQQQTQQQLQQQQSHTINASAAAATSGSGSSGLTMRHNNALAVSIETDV
Excerpt: All animal experiments were approved by the local Animal Care and Use Committee and followed international guidelines. A modified Shaker H4 channel^30, with removed N-type inactivation (ShH4IR)^31, here called the wild type (WT) channel, was expressed in oocytes. In addition, a modified 3R Shaker K channel where two introduced positive charged arginines (M356R and A359R) in addition to one native arginine (R362) makes the channel more sensitive to DHA^16, was expressed in oocytes and in a CHO—K1 stable cell line.
For the modified 3R Shaker K channel a stable cell line was generated. The construct was cloned into the pcDNA3 vector. CHO—K1 cells were plated into T75 culture flasks and grown without penicillin/streptomycin. […]
where IK is the average current from the steady-state phase at the end of each 100-ms pulse, V is the membrane voltage, and Vrev is the reversal potential for K^+, (set to −80 mV for the oocytes, and calculated to be −89 mV for the CHO—K1 cells).
where A is amplitude of the curve, V is the absolute membrane voltage, V1/2 is the midpoint, s is the slope and n is an exponent set to 4^17. The compound-induced G(V) shift was determined at the 10% level of the maximum conductance in control solution^17. The compound-induced G(V) shift in CHO—K1 was quantified by subtracting the control V1/2 from the compound V1/2 when n was set to 1.

With `CC(C)c1ccc2c(c1)C(C(=O)O)CC1[C@](C)(C(=O)O)CCC[C@]21C` (stereo partly drawn) [Wu35] the “shift of the resting membrane potential (ΔVm)” value [1] was −1.1±0.4, the “effect on the after hyperpolarization” value [2] was “only a very small effect” and the “effect on resting potential, cell with single action potential” value [2] was “almost no effect”. The “effect on train of action potentials” value [2] was “almost no effect on the same cell” and the “G(V) shift in CHO cells” value (3R Shaker K channel) was “very poor shifter”.

For `C[C@@]1(C(=O)O)CCC[C@]2(C)c3cc(Cl)c(Cl)c(Cl)c3CCC12` (stereo partly drawn) [Wu50, (1R,4aS)-6,7,8-trichloro-1,4a-dimethyl-1,2,3,4,4a,9,10,10a-octahydrophenanthrene-1-carboxylic acid], the “effect on the after hyperpolarization” value [2] was “pronounced effect”, the “effect on resting potential, cell with single action potential” value [2] was “made the resting potential more negative” and the “effect on train of action potentials” value [2] was “completely abolished all action potentials”.

In the case of `CO/N=C1\CC2[C@](C)(C(=O)O)CCC[C@]2(C)c2cc(Br)c(C(C)C)cc21` (stereo partly drawn) [Wu32, (1R,4aS,E)-6-bromo-7-isopropyl-9-(methoxyimino)-1,4a-dimethyl-1,2,3,4,4a,9,10,10a-octahydrophenanthrene-1-carboxylic acid], the “shift of the resting membrane potential (ΔVm)” value [1] is reported as “intermediately potent hyperpolarizers”.
